For the data set, the system named is CCRIS mutagenicity, Ames/micronucleus/aberration tests. In words: CCRIS mutagenicity studies.
Setting [1] is: Test System: AMES SALMONELLA TYPHIMURIUM, Strain/Indicator: TA100, Metabolic Activation: NONE, Method: STANDARD PLATE.

The source made the active and inactive calls. The rule behind the calls is not given here.

Turning to `CC(C)C#N`, the mutagenic call was “inactive; negative” (End Point: In vitro chromosomal aberrations, Test System: Chinese hamster lung (CHL/IU) cells, Metabolic Activation: Rat, Liver, S9, Phenobarbital and 5,6-benzoflavone); “active; positive” (Test System: Ames Salmonella typhimurium, Strain/Indicator: TA100, Metabolic Activation: None, Method: Preincubation); “active; positive” (Test System: Ames Salmonella typhimurium, Strain/Indicator: TA100, Metabolic Activation: Rat, Liver, S9, Sodium phenobarbital and 5,6-benzoflavone (10%), Method: Preincubation); “inactive; negative” (Test System: Ames Salmonella typhimurium, Strain/Indicator: TA1535, Metabolic Activation: None, Method: Preincubation); “active; positive” (Test System: Ames Salmonella typhimurium, Strain/Indicator: TA1537, Metabolic Activation: None, Method: Preincubation); “active; positive” (Test System: E. coli, Strain/Indicator: WP2uvrA/pKM101, Metabolic Activation: None, Method: Preincubation). The mutagenic call (Test System: E. coli, Strain/Indicator: WP2uvrA/pKM101, Metabolic Activation: Rat, Liver, S9, Sodium phenobarbital and 5,6-benzoflavone (10%), Method: Preincubation) was “active; positive”.

In the case of `CC(=O)N(C(C)=O)c1ccc(C)c(N=Nc2ccccc2C)c1`, the mutagenic call (Test System: AMES SALMONELLA TYPHIMURIUM, Strain/Indicator: TA98, Metabolic Activation: NONE, Method: SUSPENSION/PLATE) was “inactive; negative”; the mutagenic call (Test System: AMES SALMONELLA TYPHIMURIUM, Strain/Indicator: TA98, Metabolic Activation: RAT, LIVER, S-9, PHENOBARBITAL AND 5,6-BENZOFLAVONE, Method: SUSPENSION/PLATE) was “inactive; negative”; the mutagenic call (Test System: AMES SALMONELLA TYPHIMURIUM, Strain/Indicator: TA100, Metabolic Activation: NONE, Method: SUSPENSION/PLATE) was “inactive; negative”; the mutagenic call (Test System: AMES SALMONELLA TYPHIMURIUM, Strain/Indicator: TA100, Metabolic Activation: RAT, LIVER, S-9, PHENOBARBITAL AND 5,6-BENZOFLAVONE, Method: SUSPENSION/PLATE) was “inactive; negative”.

As to `C[C@@H]1NCCc2cc(O)c(O)cc21`, the mutagenic call is “active; positive” (End Point: IN VITRO CHROMOSOMAL ABERRATIONS, Test System: CHL FIBROBLAST CELLS, Metabolic Activation: NONE) and “inactive; negative” (End Point: IN VITRO CHROMOSOMAL ABERRATIONS, Test System: CHL FIBROBLAST CELLS, Metabolic Activation: RAT, LIVER, S-9 (5%)).

Turning to `CCN(CC(O)c1ccc([N+]#N)c([O-])c1)N=O` (stereo not given), the mutagenic call (Test System: AMES SALMONELLA TYPHIMURIUM, Strain/Indicator: TA98, Metabolic Activation: NONE, Method: PREINCUBATION) was “active; positive”; the mutagenic call (Test System: AMES SALMONELLA TYPHIMURIUM, Strain/Indicator: TA98, Metabolic Activation: RAT LIVER S-9, PCB, Method: PREINCUBATION) is “active; positive”; the mutagenic call (Test System: AMES SALMONELLA TYPHIMURIUM, Strain/Indicator: TA100, Metabolic Activation: NONE, Method: PREINCUBATION) was “active; positive”; the mutagenic call (Test System: AMES SALMONELLA TYPHIMURIUM, Strain/Indicator: TA100, Metabolic Activation: RAT LIVER S-9, PCB, Method: PREINCUBATION) is “active; positive”.

Take `ONc1ccc(Br)cc1`: under “Test System: E. COLI, Strain/Indicator: WP2 UVRA, Metabolic Activation: NONE, Method: FLUCTUATION TEST”, the mutagenic call is “inactive; negative”.

For the molecule `COc1nsc2cc(N)ccc12`, the mutagenic call (Test System: AMES SALMONELLA TYPHIMURIUM, Strain/Indicator: TA98, Metabolic Activation: S-9, Method: STANDARD PLATE) is “active; positive”.

Consider `O=[N+]([O-])c1cc2ccccc2c2c([N+](=O)[O-])cccc12`, for which the mutagenic call (Test System: AMES SALMONELLA TYPHIMURIUM, Strain/Indicator: TA98(1,8-DNP6), Metabolic Activation: NONE, Method: STANDARD PLATE) was “active; positive”; the mutagenic call (Test System: AMES SALMONELLA TYPHIMURIUM, Strain/Indicator: TA98(NR), Metabolic Activation: NONE, Method: STANDARD PLATE) is “active; positive”; the mutagenic call (Test System: AMES SALMONELLA TYPHIMURIUM, Strain/Indicator: TA98, Metabolic Activation: NONE, Method: STANDARD PLATE) was “active; positive”; the mutagenic call under setting [1] is “active; positive”; the mutagenic call (Test System: AMES SALMONELLA TYPHIMURIUM, Strain/Indicator: YG1021, Metabolic Activation: NONE, Method: STANDARD PLATE) is “active; positive”; the mutagenic call (Test System: AMES SALMONELLA TYPHIMURIUM, Strain/Indicator: YG1024, Metabolic Activation: NONE, Method: STANDARD PLATE) was “active; positive”. Besides, the mutagenic call was “active; positive” (Test System: AMES SALMONELLA TYPHIMURIUM, Strain/Indicator: YG1026, Metabolic Activation: NONE, Method: STANDARD PLATE) and “active; positive” (Test System: AMES SALMONELLA TYPHIMURIUM, Strain/Indicator: YG1029, Metabolic Activation: NONE, Method: STANDARD PLATE).

For `CCc1cc(Cc2cc(C)c(N)c(CC)c2)cc(C)c1N`, the mutagenic call was “inactive; negative” (Test System: AMES SALMONELLA TYPHIMURIUM, Strain/Indicator: TA98, Metabolic Activation: RAT, LIVER, S-9, AROCLOR 1254, Method: STANDARD PLATE) and “inactive; negative” (Test System: AMES SALMONELLA TYPHIMURIUM, Strain/Indicator: TA100, Metabolic Activation: RAT, LIVER, S-9, AROCLOR 1254, Method: STANDARD PLATE).

Regarding `COC1OC(=O)C(Cl)=C1C(Cl)Cl` (stereo not given), under setting [1], the mutagenic call was “active; positive”.

For the origin of these results see PubChem BioAssay AID1259407 (Chemical Carcinogenesis Research Information System (CCRIS), 2018).
